# Measured values taken from paper PMC6617451, “Dual Kit/Aur Inhibitors as Chemosensitizing Agents for the Treatment of Melanoma: Design, Synthesis, Docking Studies and Functional Investigation” (Scientific Reports, 2019).
# Values joined by “and” are separate entries in the source; they are usually repeats but may differ in a detail not shown here. Identical values can stand only once.
# What was measured:
# [1] = target: T1, AurA (Homo sapiens, UniProt O14965); experiment: Protein kinase inhibitory assay, AurA; format: biochemical; details: 10 μM test compound
# T1 construct: purchased ThermoFisher Scientific
# T1 sequence (O14965 1-403): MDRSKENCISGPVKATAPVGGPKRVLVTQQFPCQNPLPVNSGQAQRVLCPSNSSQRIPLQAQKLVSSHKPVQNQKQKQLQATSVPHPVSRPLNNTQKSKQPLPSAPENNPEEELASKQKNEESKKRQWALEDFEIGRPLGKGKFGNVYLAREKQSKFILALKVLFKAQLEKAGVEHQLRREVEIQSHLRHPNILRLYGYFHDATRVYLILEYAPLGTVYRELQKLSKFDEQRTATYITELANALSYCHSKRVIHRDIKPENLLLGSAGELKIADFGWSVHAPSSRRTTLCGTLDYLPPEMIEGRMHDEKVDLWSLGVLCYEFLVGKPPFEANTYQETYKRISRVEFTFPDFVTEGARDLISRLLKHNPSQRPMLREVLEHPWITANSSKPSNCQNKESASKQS
# [2] = target: T2, AurC (Homo sapiens, UniProt Q9UQB9); experiment: Protein kinase inhibitory assay, AurC; format: biochemical; details: 10 μM test compound
# T2 construct: purchased ThermoFisher Scientific
# T2 sequence (Q9UQB9 1-309): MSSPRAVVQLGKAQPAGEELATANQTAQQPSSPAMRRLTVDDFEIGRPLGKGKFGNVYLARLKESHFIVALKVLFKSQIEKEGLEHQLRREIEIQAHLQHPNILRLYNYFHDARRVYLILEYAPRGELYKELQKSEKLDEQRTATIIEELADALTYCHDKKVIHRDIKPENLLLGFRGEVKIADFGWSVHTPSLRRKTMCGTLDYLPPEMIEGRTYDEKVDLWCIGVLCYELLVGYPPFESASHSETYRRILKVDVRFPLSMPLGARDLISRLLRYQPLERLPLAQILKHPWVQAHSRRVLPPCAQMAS
# Experimental: (§1) Cell culture media EMEM and DMEM, fetal bovine serum (FBS), L-glutamine, and antibiotics were from Sigma-Aldrich St. Louis, MO, USA). Vemurafenib was purchased from Selleckchem (Munich, Germany). Human recombinant protein kinases and Protein kinase assay kits were from ThermoFisher Scientific (MA, US). Plastics were supplied by Sarstedt (Verona, Italy).
# (§2) Inhibitory assays were performed in accordance with a previously reported procedure, standardized for RET and VEGFR2[28],[41]. Test compounds were dissolved in 100% DMSO and diluted to the appropriate concentrations with the reaction buffer, provided by the kit. […] The inhibitory effect of the novel compounds was routinely estimated at 10 μM concentration.
# [3] = system: WM266-4 cell line; experiment: Proliferation assay, WM266-4 melanoma cells (single agents and combination, Chou-Talalay); format: cell-based, human; details: for Dose Reduction Index (DRI) 6a + vemurafenib: DRI of each drug in the combination
# Experimental: (§3) Compound 6a, merging the best inhibitory profile against the target c-Kit/AurB kinases, was tested on the human A2058 (American Type Culture Collection, Manassas, USA) and WM266-4 (European Collection of Authenticated Cell Cultures, Salisbury, UK) cell lines, chosen as representative of BRAF-mutated melanoma cell lines, to investigate its anti-proliferative efficacy. […]. Vemurafenib, the BRAF V600E inhibitor currently used for the treatment of inoperable, metastatic melanoma, was used as the reference compound. […] The level of possible interaction between the two kinase inhibitors, synergistic, additive or antagonist in nature, was determined by the method of Chou-Talaly[38] and quantitated through the combination index (CI), calculated exploiting the following multiple drug-effect Eq. (1)1 CI=[(D)1/(Dx)1]+[(D)2/(Dx)2] and referred to as synergism, additive effect and antagonism when CI < 1, CI = 1 and CI > 1, respectively.
# (§4) The Dose Reduction Index (DRI) was calculated as well, to assess the theoretical magnitude of concentration reduction allowed for the two drugs when given in synergistic combination in vitro to achieve the same effect as that obtained with the concentration of each single agent. DRI was calculated by the following Eq. (2):2 (DRI)=(Dx)/(D)
# (§5) Test compounds 6a and vemurafenib were dissolved in a stock solution of 10 mM in 100% dimethylsulfoxide (DMSO) for in vitro studies. DMSO concentration in the control’s media was the same used to make up the highest concentration of test compounds in growth media for the same experiment. In vitro chemosensitivity was tested on melanoma WM266-4 and A2058 cell lines. Cells were grown in EMEM and DMEM media, respectively, plated in sterile 24-well plastic plates and treated for 72 h (using 10^3 cells/well in 1 mL of medium) with added 6a (range of 1–100 μM), or vemurafenib (0.0001–100 μM) alone. The synergistic effect between 6a and vemurafenib was calculated with the method of Chou-Talaly[38] based on the multiple drug-effect equation and quantitated by the combination index (CI) and the dose reduction index (DRI), where CI < 1 and DRI > 1 indicate synergism. At the end of the experiment, cells were harvested with trypsin/EDTA, and viable cells were quantified using the automatic cell counter ADAM MC Digital B (Twin Helix, Milano, Italy). The data are presented as the percentage of vehicle-treated cells. […] All experiments were repeated independently three times with at least nine samples for each concentration.
# [4] = system: A2058 cell line; experiment: Proliferation assay, A2058 melanoma cells (single agents and combination, Chou-Talalay); format: cell-based, human; details: for Dose Reduction Index (DRI) 6a + vemurafenib: DRI of each drug in the combination
# Experimental: as §3, §4, §5
# [5] = target: T3, c-Kit phosphorylation (Homo sapiens, UniProt P10721); experiment: c-Kit phosphorylation ELISA assay in melanoma cells; format: cell-based; details: WM266-4 and A2058 cells, 6a 10 μM, 72 h, vs vehicle-treated
# T3 construct: endogenous in cells; host or cells: WM266-4 and A2058 human melanoma cells
# Experimental: (§6) WM266-4 and A2058 cells (5 × 10^4 cells/well) were treated for 72 h with compound 6a (10 μM) or with vehicle alone. To measure phospho c-Kit and phospho AurB, at the end of the experiment, the cells were harvested and immediately frozen with liquid nitrogen. Cells were then lysed and the total protein was measured. In each sample, an equal amount of proteins was then assayed for human c-Kit and AurB phosporylation by the Human Phospho-CD117/c-kit ELISA Kit (Assaysolution; Woburn, MA, USA) and the AurB (Phospho-Thr232) ELISA Kit (Aviva System Biology; San Diego, CA, USA) and normalized by total protein c-Kit and AurB concentration measured by c-Kit and AurB ELISA kits, respectively. The optical density was determined using the microplate reader Multiskan Spectrum set to 450 nm. All experiments were repeated, independently, six times with at least nine samples for each concentration. The data were expressed as the ratio of phosphorylated c-Kit or AurB/total c-Kit or AurB.
# [6] = target: T4, AurB phosphorylation (Homo sapiens, UniProt Q96GD4); experiment: AurB phosphorylation (Phospho-Thr232) ELISA assay in melanoma cells; format: cell-based; details: WM266-4 and A2058 cells, 6a 10 μM, 72 h, vs vehicle-treated
# T4 construct: endogenous in cells; host or cells: WM266-4 and A2058 human melanoma cells
# Experimental: as §6
# [7] = target: T5, AurB (Homo sapiens, UniProt Q96GD4); experiment: Protein kinase inhibitory assay, AurB; format: biochemical; details: 10 μM test compound
# T5 construct: purchased ThermoFisher Scientific
# Experimental: as §1, §2
# [8] = WM266-4, affected cell fraction 75%
# [9] = WM266-4, affected cell fraction 85%
# [10] = WM266-4, affected cell fraction 95%
# [11] = A2058, affected cell fraction 75%
# [12] = A2058, affected cell fraction 85%
# T5 sequence (Q96GD4 whole entry): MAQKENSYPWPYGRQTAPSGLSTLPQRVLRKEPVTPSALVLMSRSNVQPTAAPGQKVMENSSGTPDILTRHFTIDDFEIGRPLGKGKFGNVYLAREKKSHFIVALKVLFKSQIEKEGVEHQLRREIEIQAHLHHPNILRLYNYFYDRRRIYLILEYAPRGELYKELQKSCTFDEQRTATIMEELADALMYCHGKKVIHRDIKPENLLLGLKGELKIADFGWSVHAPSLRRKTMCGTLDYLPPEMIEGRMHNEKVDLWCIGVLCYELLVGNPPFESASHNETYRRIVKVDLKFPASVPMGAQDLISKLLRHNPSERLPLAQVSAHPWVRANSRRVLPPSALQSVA
# T3 sequence (P10721 26-976): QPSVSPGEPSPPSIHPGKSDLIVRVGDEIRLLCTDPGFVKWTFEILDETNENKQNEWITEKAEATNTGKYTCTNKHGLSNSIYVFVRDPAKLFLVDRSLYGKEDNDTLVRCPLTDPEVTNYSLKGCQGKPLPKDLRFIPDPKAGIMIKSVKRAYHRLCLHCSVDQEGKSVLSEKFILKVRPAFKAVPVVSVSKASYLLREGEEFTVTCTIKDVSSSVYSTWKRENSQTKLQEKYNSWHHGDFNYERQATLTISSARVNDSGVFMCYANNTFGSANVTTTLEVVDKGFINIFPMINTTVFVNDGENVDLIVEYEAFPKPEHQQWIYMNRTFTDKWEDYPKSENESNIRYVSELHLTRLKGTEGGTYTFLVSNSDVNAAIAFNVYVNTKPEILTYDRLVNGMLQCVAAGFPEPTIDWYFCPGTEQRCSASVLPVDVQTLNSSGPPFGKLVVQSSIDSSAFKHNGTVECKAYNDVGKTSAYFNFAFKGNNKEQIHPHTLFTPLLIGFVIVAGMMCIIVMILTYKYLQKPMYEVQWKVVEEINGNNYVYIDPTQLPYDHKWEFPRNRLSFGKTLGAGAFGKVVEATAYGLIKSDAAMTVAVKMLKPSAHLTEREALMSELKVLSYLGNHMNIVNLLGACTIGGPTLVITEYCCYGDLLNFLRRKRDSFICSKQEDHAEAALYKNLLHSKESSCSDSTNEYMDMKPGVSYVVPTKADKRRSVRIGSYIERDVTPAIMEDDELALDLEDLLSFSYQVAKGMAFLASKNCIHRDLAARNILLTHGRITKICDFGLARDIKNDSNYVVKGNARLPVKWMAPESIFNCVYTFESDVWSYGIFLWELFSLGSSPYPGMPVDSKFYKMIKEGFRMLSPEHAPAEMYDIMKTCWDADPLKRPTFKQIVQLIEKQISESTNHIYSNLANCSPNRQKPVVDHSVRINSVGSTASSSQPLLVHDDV
# T4 sequence (Q96GD4 whole entry): as the sequence (Q96GD4 whole entry) above
SMILES,"percentage of kinase inhibition, AurA [1]","Dose Reduction Index (DRI) 6a + vemurafenib [3, 8]","Dose Reduction Index (DRI) 6a + vemurafenib [3, 9]","Dose Reduction Index (DRI) 6a + vemurafenib [3, 10]","Dose Reduction Index (DRI) 6a + vemurafenib [4, 11]","Dose Reduction Index (DRI) 6a + vemurafenib [4, 12]","percentage of kinase inhibition, AurB [7]",other results
"O=C(Nc1ccccc1)Nc1ccc(SCc2n[nH]c(-c3ccccc3)n2)cc1 [Compound 6a, 1-phenyl-3-(4-(((3-phenyl-1H-1,2,4-triazol-5-yl)methyl)thio)phenyl)urea]",most active of the synthesized series,374.9,272.1,150 and 147.9,494.1,429.0,,"percentage of kinase inhibition, AurC [2]: most effective of the whole series; IC50 ([3]; Homo sapiens, WM 266-4, WM266-4, BRAF V600E, 72 h exposure, read-out: IC50 antiproliferative activity): 9.65 µM; IC50 ([4]; Homo sapiens, A2058, BRAF V600D, 72 h exposure, read-out: IC50 antiproliferative activity): 11.4 µM; inhibition of c-Kit phosphorylation (ratio phosphorylated c-Kit/total c-Kit) [5]: significant inhibition of c-Kit phosphorylation; quantity of the phosphorylated form of AurB (ratio phosphorylated AurB/total AurB) [6]: weakly reduced"
CN(C)c1ccc(NC(=O)Nc2ccc(SCc3n[nH]c(-c4ccc(Cl)cc4)n3)cc2)cc1 [Compound 6e],no inhibitory activity,,,,,,no inhibitory activity,
O=C(Nc1ccc(SCc2n[nH]c(-c3ccc(Br)cc3)n2)cc1)Nc1ccc(C(F)(F)F)cc1 [Compound 6g],no inhibitory activity,,,,,,,
COc1ccc(NC(=O)Nc2ccc(SCc3n[nH]c(-c4ccc(Br)cc4)n3)cc2)cc1OC [Compound 6h],,,,,,,no inhibitory activity,
CCCS(=O)(=O)Nc1ccc(F)c(C(=O)c2c[nH]c3ncc(-c4ccc(Cl)cc4)cc23)c1F [vemurafenib],,1.1,1.2,1.4,21.8,22.2,,"Dose Reduction Index (DRI) 6a + vemurafenib ([4]; A2058, affected cell fraction 95%): 22.9"
